In PubChem BioAssay AID1259407 (Chemical Carcinogenesis Research Information System (CCRIS), 2018):
The source made the active and inactive calls. No rule for the calls is given here.

Tested on: CCRIS mutagenicity, Ames/micronucleus/aberration tests
Experiment: CCRIS mutagenicity studies
[1] = Test System: AMES SALMONELLA TYPHIMURIUM, Strain/Indicator: TA98, Metabolic Activation: NONE, Method: PREINCUBATION
[2] = Test System: AMES SALMONELLA TYPHIMURIUM, Strain/Indicator: TA100, Metabolic Activation: NONE, Method: PREINCUBATION
[3] = Test System: AMES SALMONELLA TYPHIMURIUM, Strain/Indicator: TA1537, Metabolic Activation: NONE, Method: PREINCUBATION
[4] = Test System: AMES SALMONELLA TYPHIMURIUM, Strain/Indicator: TA98, Metabolic Activation: NONE, Method: STANDARD PLATE
[5] = Test System: AMES SALMONELLA TYPHIMURIUM, Strain/Indicator: TA100, Metabolic Activation: NONE, Method: STANDARD PLATE
[6] = Test System: AMES SALMONELLA TYPHIMURIUM, Strain/Indicator: TA98, Metabolic Activation: RAT, LIVER, S-9, PCB, Method: PREINCUBATION

O.O.O.O.O.O.O=[N+]([O-])O.O=[N+]([O-])O.[Zn]
mutagenic call [1]: inactive; negative | mutagenic call (Test System: AMES SALMONELLA TYPHIMURIUM, Strain/Indicator: TA98, Metabolic Activation: RAT LIVER S-9, PHENOBARBITAL AND BETA-NAPHTHOFLAVONE, Method: PREINCUBATION): inactive; negative | mutagenic call [2]: inactive; negative | mutagenic call (Test System: AMES SALMONELLA TYPHIMURIUM, Strain/Indicator: TA100, Metabolic Activation: RAT LIVER S-9, PHENOBARBITAL AND BETA-NAPHTHOFLAVONE, Method: PREINCUBATION): inactive; negative | mutagenic call (Test System: AMES SALMONELLA TYPHIMURIUM, Strain/Indicator: TA1535, Metabolic Activation: NONE, Method: PREINCUBATION): inactive; negative | mutagenic call (Test System: AMES SALMONELLA TYPHIMURIUM, Strain/Indicator: TA1535, Metabolic Activation: RAT LIVER S-9, PHENOBARBITAL AND BETA-NAPHTHOFLAVONE, Method: PREINCUBATION): inactive; negative | mutagenic call [3]: inactive; negative | mutagenic call (Test System: AMES SALMONELLA TYPHIMURIUM, Strain/Indicator: TA1537, Metabolic Activation: RAT LIVER S-9, PHENOBARBITAL AND BETA-NAPHTHOFLAVONE, Method: PREINCUBATION): inactive; negative | mutagenic call (Test System: AMES SALMONELLA TYPHIMURIUM, Strain/Indicator: TA1538, Metabolic Activation: NONE, Method: PREINCUBATION): inactive; negative | mutagenic call (Test System: AMES SALMONELLA TYPHIMURIUM, Strain/Indicator: TA1538, Metabolic Activation: RAT LIVER S-9, PHENOBARBITAL AND BETA-NAPHTHOFLAVONE, Method: PREINCUBATION): inactive; negative | mutagenic call (Test System: E.COLI, Strain/Indicator: WP2UVRA, Metabolic Activation: NONE, Method: PREINCUBATION): inactive; negative | mutagenic call (Test System: E.COLI, Strain/Indicator: WP2UVRA, Metabolic Activation: RAT LIVER S-9, PHENOBARBITAL AND BETA-NAPHTHOFLAVONE, Method: PREINCUBATION): inactive; negative

CCc1ccc(NC(=O)c2csc([N+](=O)[O-])c2)cc1
mutagenic call [4]: active; positive | mutagenic call [5]: active; positive

C[C@H](CCC(=O)O)[C@H]1CC[C@H]2[C@@H]3CC[C@@H]4CC(=O)CC[C@]4(C)[C@H]3C[C@@H](O)[C@]12C
mutagenic call (Test System: AMES SALMONELLA TYPHIMURIUM, Strain/Indicator: TA98, Metabolic Activation: NONE, Method: FLUCTUATION TEST): inactive; negative | mutagenic call [1]: inactive; negative | mutagenic call [6]: inactive; negative | mutagenic call (Test System: AMES SALMONELLA TYPHIMURIUM, Strain/Indicator: TA100, Metabolic Activation: NONE, Method: FLUCTUATION TEST): inactive; negative

O=C1c2ccccc2-c2ccc([N+](=O)[O-])cc21
mutagenic call (Test System: AMES SALMONELLA TYPHIMURIUM, Strain/Indicator: TA98 (1,8-DNP6), Metabolic Activation: NONE, Method: PREINCUBATION): active; positive | mutagenic call (Test System: AMES SALMONELLA TYPHIMURIUM, Strain/Indicator: TA98(1,8-DNP6), Metabolic Activation: NONE, Method: STANDARD PLATE): active; positive | mutagenic call (Test System: AMES SALMONELLA TYPHIMURIUM, Strain/Indicator: TA98 (NR), Metabolic Activation: NONE, Method: PREINCUBATION): active; positive | mutagenic call (Test System: AMES SALMONELLA TYPHIMURIUM, Strain/Indicator: TA98(NR), Metabolic Activation: NONE, Method: STANDARD PLATE): active; positive | mutagenic call (Test System: AMES SALMONELLA TYPHIMURIUM, Strain/Indicator: TA98(NR), Metabolic Activation: RAT LIVER S-9 (10%), Method: PREINCUBATION): active; positive | mutagenic call (Test System: AMES SALMONELLA TYPHIMURIUM, Strain/Indicator: TA98(NR), Metabolic Activation: RAT LIVER S-9, 3-METHYLCHOLANTHRENE (10%), Method: PREINCUBATION): active; positive | mutagenic call (Test System: AMES SALMONELLA TYPHIMURIUM, Strain/Indicator: TA98(NR), Metabolic Activation: RAT LIVER S-9, BETA-NAPHTHAFLAVONE (10%), Method: PREINCUBATION): active; positive | mutagenic call (Test System: AMES SALMONELLA TYPHIMURIUM, Strain/Indicator: TA98(NR), Metabolic Activation: RAT LIVER S-9, PCB (10%), Method: PREINCUBATION): active; positive | mutagenic call (Test System: AMES SALMONELLA TYPHIMURIUM, Strain/Indicator: TA98(NR), Metabolic Activation: RAT LIVER S-9, PHENOBARBITAL (10%), Method: PREINCUBATION): active; positive | mutagenic call [1]: active; positive | mutagenic call [4]: active; positive | mutagenic call (Test System: AMES SALMONELLA TYPHIMURIUM, Strain/Indicator: TA98, Metabolic Activation: RAT, LIVER, S-9, AROCLOR 1254, Method: STANDARD PLATE): active; positive | mutagenic call [5]: active; positive | mutagenic call (Test System: AMES SALMONELLA TYPHIMURIUM, Strain/Indicator: TA100, Metabolic Activation: RAT, LIVER, S-9, AROCLOR 1254, Method: STANDARD PLATE): active; positive | mutagenic call (Test System: AMES SALMONELLA TYPHIMURIUM, Strain/Indicator: TA1538, Metabolic Activation: NONE): active; positive | mutagenic call (Test System: AMES SALMONELLA TYPHIMURIUM, Strain/Indicator: TA7001, Metabolic Activation: NONE, Method: PREINCUBATION): inactive; negative | mutagenic call (Test System: AMES SALMONELLA TYPHIMURIUM, Strain/Indicator: TA7002, Metabolic Activation: NONE, Method: PREINCUBATION): active; positive | mutagenic call (Test System: AMES SALMONELLA TYPHIMURIUM, Strain/Indicator: TA7003, Metabolic Activation: NONE, Method: PREINCUBATION): inactive; negative | mutagenic call (Test System: AMES SALMONELLA TYPHIMURIUM, Strain/Indicator: TA7004, Metabolic Activation: NONE, Method: PREINCUBATION): active; positive | mutagenic call (Test System: AMES SALMONELLA TYPHIMURIUM, Strain/Indicator: TA7005, Metabolic Activation: NONE, Method: PREINCUBATION): active; positive | mutagenic call (Test System: AMES SALMONELLA TYPHIMURIUM, Strain/Indicator: TA7006, Metabolic Activation: NONE, Method: PREINCUBATION): active; positive | mutagenic call (Test System: AMES SALMONELLA TYPHIMURIUM, Strain/Indicator: YG7131, Metabolic Activation: NONE): active; positive

Cc1ccc2c(c1)c(=NC(=O)CCCl)sn2C(=O)CCCl
mutagenic call (Test System: AMES SALMONELLA TYPHIMURIUM, Strain/Indicator: TA100, Metabolic Activation: S-9, Method: STANDARD PLATE): inactive; negative

O=C1c2ccccc2C(=O)c2c(O)cc(O)cc21
mutagenic call [1]: inactive; negative | mutagenic call [6]: active; positive | mutagenic call [2]: inactive; negative | mutagenic call (Test System: AMES SALMONELLA TYPHIMURIUM, Strain/Indicator: TA100, Metabolic Activation: RAT, LIVER, S-9, PCB, Method: PREINCUBATION): active; positive | mutagenic call [3]: active; positive | mutagenic call (Test System: AMES SALMONELLA TYPHIMURIUM, Strain/Indicator: TA1537, Metabolic Activation: RAT, LIVER, S-9, Method: PREINCUBATION): active; positive | mutagenic call (Test System: CHINESE HAMSTER V-79, Strain/Indicator: V-79/8-AZAGUANINE, Metabolic Activation: NONE, Method: STANDARD PLATE): active; positive | mutagenic call (Test System: CHINESE HAMSTER V-79, Strain/Indicator: V-79/8-AZAGUANINE, Metabolic Activation: PRIMARY RAT HEPATOCYTES, Method: STANDARD PLATE): active; positive | mutagenic call (Test System: UDS RODENT HEPATOCYTES, Strain/Indicator: THY INCORP (NON-S-PHASE), Metabolic Activation: NONE, Method: AUTORADIOGRAPHY): active; positive
